Data on 3 compounds can be found in patent publication US4218439A, “Peptide which inhibits gonadal function” (The Salk Institute for Biological Studies, priority 1978, dated 1980).

Some results are limits rather than exact numbers.

Assay [1] deals with release of gonadotropins by the pituitary gland. Put plainly: potency of the peptide compared with LRF. Conditions: times more potent than LRF. The source says:
The peptide can be used as a contraceptive for male mammals. The peptide can be administered by any suitable and convenient method, such as orally, by injection or subcutaneously. The peptide can be combined with suitable pharmaceutically acceptable carriers or diluents, such as vegetable oil, sugars, polysaccharides and gums.

Assay [2] has as its system male rats. Put plainly: treatment of male rats with the peptide once a day: organ weights, plasma hormones, histology, fertility. In kind it is in vivo, rat. The source says:
It has been determined that the treatment of male rats with 10 micrograms of the peptide once a day for 7 days results in a decrease in testis and seminal vesicle weight, spermatogenesis and plasma androgen levels. However, immunoreactive gonadotropin levels in the treated male animals were elevated relative to control animals.

A further assay relates to male mammals. Put plainly: effective dosage level and recovery after cessation of 7-day treatment. The class given is in vivo. An excerpt: The peptide is used at a level effective to prevent reproduction by male mammals. It has been determined that the peptide of the invention is effective at levels as low as 0.5 microgram per kilogram of body weight per day for 7 days to reduce testes and seminal vesicle weights. […] Prostate weights recover in 2 weeks and seminal vesicle weights in 4 weeks. It is preferred to use dosage levels in the range of from about 0.5 to about 50 micrograms per kilogram of body weight per day. Higher levels can be used but no significant benefit is attained through use of higher levels.

Assay [3] has as its system male rats. Description: treatment of male rats with the peptide once a day: organ weights, plasma hormones, histology, fertility. The class given is in vivo, rat. Conditions: 10 μG peptide for 15 days (Table I).
For the next assay, the system named is female rats. The following applies: large and frequent dosages; cited from earlier work.
Assay [4] relates to release of luteinizing hormone and other gonadotropins by the pituitary gland. The following applies: compared with Gly6 peptide; cited from earlier work.
[5] abbreviates: following cessation of the injections.
The mark [6] stands for this setting: male rats, 10 micrograms once a day for 7 days.
[7] abbreviates: following cessation of treatment for 7 days.

With `CCNC(=O)[C@@H]1CCCN1C(=O)[C@H](CCCNC(=N)N)NC(=O)[C@H](CC(C)C)NC(=O)[C@@H](Cc1c[nH]c2ccccc12)NC(=O)[C@H](Cc1ccc(O)cc1)NC(=O)[C@H](CO)NC(=O)[C@H](Cc1c[nH]c2ccccc12)NC(=O)[C@H](Cc1c[nH]cn1)NC(=O)[C@@H]1CCC(=O)N1` [peptide, p--Glu--His--Trp--Ser--Tyr--D--Trp--Leu--Arg--Pro--NH--CH2 --CH3], the “potency relative to LRF” value in assay [1] is “about 150 times”. Also, in the assay on male rats [2] (setting [5]), the “ability to cause fertilization” value is on record as “incapable of causing fertilization” and the “ability to effect coitus” value is listed as “capable of effecting coitus”. In the assay with male rats [2] (following the 7-day treatment, up to several weeks following cessation of daily injections), the “histological examination of the testes” value was “tubular damage, arrested spermatogenesis and degenerated Sertoli cells”. In the assay on male rats [2] (setting [6]), the “immunoreactive gonadotropin levels relative to control animals” value is reported as “elevated”; the “testis and seminal vesicle weight, spermatogenesis and plasma androgen levels” value was “decrease”. In the assay with male mammals (setting [7]), the “time for prostate weights to recover” value came to 2 weeks, the “time for seminal vesicle weights to recover” value was determined as 4 weeks and the “time until testosterone levels comparable to those of control animals” value is “one”. For the same compound, the “level effective to reduce testes and seminal vesicle weights” value in the assay on male mammals (for 7 days) is recorded as ≤ 0.5 microgram per kilogram of body weight per day. In addition, in the assay with male rats [3], the “Plasma DHT” value is 151 ng/mL, the “Plasma FSH” value came to 1582 ng/mL, the “Plasma LH” value came out at 561 ng/mL and the “Plasma Test.” value worked out at 229 ng/mL. Besides, in the assay with male rats [3], the “Wt. Sem. V.” value came out at 0.18 Grams and the “Wt. Testis” value is on record as 1.33 Grams.

Regarding “p--Glu--His--Trp--Ser--Tyr--Gly--Leu--Arg--Pro--Gly--NH2 (EHWSYGLRPG; pyroglutamyl N-terminus, C-terminal amide; printed: Glu--His--Trp--Ser--Tyr--Gly--Leu--Arg--Pro--Gly--) [LRF, hypothalamic hormone which acts as a releasing factor for LH; decapeptide]”, the “effect on gonadal function” value with female rats is reported as “inhibit gonadal function”.

As to “p--Glu--Trp--Ser--Tyr--D--Ala--Leu--Arg--Pro--Gly--NH2”, the “potency as an inhibitor for the release of gonadotropins relative to the same peptide with Gly in the 6-position” value in assay [4] is recorded as 3 times.
